From publication PMC10544015 (Journal of Medicinal Chemistry, 2023)
Entries after “also recorded” stand apart in the source; their conditions may differ. Where two headings read alike, the source gives them in different places. Bridge positions count the residues as written; N and C are the ends. Square brackets hold non-standard residues; d marks the D form. Triazole bridges read from a SMILES are 1,4-linked. Peptide text beside a SMILES is read from it. Lys(N3) = [N-]=[N+]=NCCCC[C@H](N)C(=O)O; Orn(N3) = [N-]=[N+]=NCCC[C@H](N)C(=O)O; Hpra = C#CCC[C@H](N)C(=O)O; Pra = C#CC[C@H](N)C(=O)O; Ahx = NCCCCCC(=O)O

Assays:
circular dichroism = settings: PBS (10 mM phosphate, 137 mM NaCl, 2.7 mM KCl); pH 7.4; rt °C; 100 uM
Panx1 channels [1] = molecular target: T1, Panx1 channels (Mus musculus, UniProt Q9JIP4); assay: HOS-induced ATP release assay in B16-BL6 cells; settings: for inhibition at 100 µM: B16-BL6, read-out: % ATP release inhibition at 100µM (in B16-BL6 cells)
Panx1 channels [2] = molecular target: T2, Panx1 channels (Homo sapiens, UniProt Q96RD7); assay: HOS-induced ATP release assay in EA.hy926 endothelial cells; type: cell-based
T2 construct: host or cells: EA.hy926 human endothelial cells
Description: Similar to B16-BL6 cells, a 2–3-fold enhancement of ATP release from EA.hy926 cells was observed upon HOS stimulation (Figure 7E). However, the absolute levels of ATP release were lower in these endothelial cells (around 300 vs 500–600 nM in B16-BL6 cells). As expected, Pbn reduced HOS-induced ATP release from EA.hy926 cells, albeit by a lower fraction than the one observed in B16-BL6 cells (Figure 7E vs7A). The reason for this different efficacy of Pbn is unknown but may be due to its nonspecific action on other ATP release channels or transporters,[68] of which the expression naturally varies among different cell types. […] The water-soluble double-stapled ^10Panx1 peptidomimetic SBL-PX1-206 reduced HOS-induced ATP release from EA.hy926 cells by about 25% at 12.5 μM. […] Stapled and double-stapled ^10Panx1 analogues were also not cytotoxic when tested at 100 and 12.5 μM in EA.hy926 cells (Supporting Information, Figure S8).
(§1) Triplicates were performed for each independent experiment.

H9c2 cells = assay: ATP release assay in Panx1-lacking H9c2 cells (specificity); type: cell-based, rat; settings: peptides 100 or 12.5 µM, Pbn 2.5 mM, 30 min HOS
Excerpt: The cardiomyoblast cell line (H9c2) was chosen to assess the specificity of the stapled ^10Panx1 analogues. Panx1 mRNA was not found in undifferentiated H9c2 cells or after differentiation into cardiomyocyte-like cells, while it was readily detected in our positive controls (kidney and liver samples; Supporting Information, Figure S5B). The absence of Panx1 protein expression was confirmed by Western blot analysis in both undifferentiated and differentiated H9c2 cells (Supporting Information, Figure S5C) as well as by immunostaining on H9c2 cells (Supporting Information, Figure S5D). […] Of note, the low concentration of ATP release in H9c2 cells compared to B16-BL6 cells (47 vs 513 nM, respectively, see dotted line in Supporting Information, Figure S5E) cannot be attributed to low cellular content of the metabolite because a high level of ATP was found in the supernatant (1170 nM) when cells were lysed with Triton X-100.
as §1

Panx1 channels [3] = molecular target: T1, Panx1 channels; assay: Yo-Pro-1 dye uptake assay in B16-BL6 cells; type: cell-based; settings: for decrease of HOS-induced Yo-Pro-1 uptake: 100 µM, 30 min HOS
Description: The ability of the two previously identified lead compounds, SBL-PX1–42 and SBL-PX1-44, to affect the cellular uptake of ions and small molecules through Panx1 channels was evaluated in Yo-Pro-1 uptake assays. Yo-Pro-1 is a small fluorescent dye of 629 Da able to diffuse into cells through open Panx1 channels and emit green fluorescence when binding to nucleic acids in the cells.[66],[67] A representative example showing Yo-Pro-1 uptake over time is given in the Supporting Information (Figure S4). As expected, HOS induced a rapid Yo-Pro-1 uptake, which continued to increase gradually over time. […] While a small nonsignificant inhibition (14%) of Yo-Pro-1 uptake was observed when cells were exposed to 100 μM of ^10Panx1, the same concentration of the SBL-PX1-42 or SBL-PX1-44 analogues decreased Yo-Pro-1 uptake by 26 and 27%, respectively (Figure 3E). […] Among other possibilities, the reduced efficacy of the peptidomimetics in Yo-Pro-1 uptake assays, as compared to ATP release assays, may be attributed to the difference in size between ATP and Yo-Pro-1 or to the different repartition of charges in the two molecules.
B16-BL6 cells were plated on 96-well plates and grown until confluency. […] Cells were then incubated in the HOS solution containing the aforementioned compounds. Yo-Pro-1 (5 μM, Life Technologies) was added to the cells, and fluorescence was continuously recorded for 30 min with FDSS/μCELL Functional Drug Screening System (Hamamatsu Photonics). Yo-Pro-1 uptake in each condition was expressed as a percentage of HOS-induced Yo-Pro-1 uptake. […] Triplicates were performed for each independent experiment.

B16-BL6 cells = assay: LDH cytotoxicity assay in B16-BL6 cells; type: cell-based, mouse; settings: peptides 100 to 6.25 µM, Pbn 2.5 mM, HOS solution
[4] = In vitro proteolytic stability in human plasma; type: in vitro ADME
Description: The proteolytic stability of the peptides was determined through in vitro stability assays in human plasma, as previously reported.[31],[89] Briefly, a stock solution of the peptide was prepared at a concentration of 1–2 mm in Milli-Q water and was used for further dilutions. Prior to the actual stability testing, the selectivity of the assay and stability of the working solutions were evaluated in parallel with an assessment of the linearity, accuracy, and precision of the method using three separately prepared calibration curves. The samples were analyzed by RP-HPLC on an Agilent 1200 series gradient HPLC system in combination with an EC HPLC column EC 150/2 NUCLEODUR (C18 HTec, 3 μm length: 150 mm, ID: 2 mm. Macherey-Nagel). The half-lives of the peptides were calculated by interpolating the data based on the obtained calibration curve. Afterward, the log concentrations as a function of time were transferred to a semi-log chart. Metabolites were identified by reanalyzing the samples using LC-MS on the same system previously described.[31]

[5] = Circular dichroism spectroscopy (helicity); type: physicochemical; settings: PBS, 20 to 90 °C
Description: Spectra were measured with a JASCO J-715 CD spectropolarimeter equipped with a temperature controller using a 1 mm path length quartz cuvette and a scan rate of […]. The spectra were recorded in the wavelength range of 190–260 nm with a resolution and a bandwidth of 0.5 and 1.0 nm, respectively. The sensitivity and scan rate of the spectrometer were set to 100 mdeg and 50 nm min^–1, respectively. Samples were prepared in phosphate-buffered saline (PBS, 10 mM phosphate, 137 mM sodium chloride, 2.7 mM potassium chloride, pH 7.4, at room temperature) to the final concentration of 100 μM with or without 2,2,2-trifluoroethanol (TFE). CD spectra were averaged over 3–5 scans with the baseline subtracted from analogous conditions as those for the samples and converted to the mean residue ellipticity. Helicity was calculated as previously reported (see the Supporting Information).[52]

[6] = Water solubility (observation); type: physicochemical
human plasma = settings: 37 °C
[7] = EA.hy 926, read-out: % ATP release inhibition at 100µM (in EA.hy926 cells)

T1 sequence (Q9JIP4 whole entry): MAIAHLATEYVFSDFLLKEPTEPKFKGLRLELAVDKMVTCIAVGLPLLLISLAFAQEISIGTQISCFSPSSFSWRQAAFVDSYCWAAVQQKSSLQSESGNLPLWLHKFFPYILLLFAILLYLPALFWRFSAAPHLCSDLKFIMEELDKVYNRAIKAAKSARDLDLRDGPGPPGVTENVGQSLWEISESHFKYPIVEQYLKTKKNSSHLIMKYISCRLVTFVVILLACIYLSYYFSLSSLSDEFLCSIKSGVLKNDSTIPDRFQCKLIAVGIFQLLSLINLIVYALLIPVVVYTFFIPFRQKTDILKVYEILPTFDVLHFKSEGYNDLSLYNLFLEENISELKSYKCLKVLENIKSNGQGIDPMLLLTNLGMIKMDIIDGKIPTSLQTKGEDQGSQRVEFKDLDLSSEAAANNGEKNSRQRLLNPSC
T2 sequence (Q96RD7 whole entry): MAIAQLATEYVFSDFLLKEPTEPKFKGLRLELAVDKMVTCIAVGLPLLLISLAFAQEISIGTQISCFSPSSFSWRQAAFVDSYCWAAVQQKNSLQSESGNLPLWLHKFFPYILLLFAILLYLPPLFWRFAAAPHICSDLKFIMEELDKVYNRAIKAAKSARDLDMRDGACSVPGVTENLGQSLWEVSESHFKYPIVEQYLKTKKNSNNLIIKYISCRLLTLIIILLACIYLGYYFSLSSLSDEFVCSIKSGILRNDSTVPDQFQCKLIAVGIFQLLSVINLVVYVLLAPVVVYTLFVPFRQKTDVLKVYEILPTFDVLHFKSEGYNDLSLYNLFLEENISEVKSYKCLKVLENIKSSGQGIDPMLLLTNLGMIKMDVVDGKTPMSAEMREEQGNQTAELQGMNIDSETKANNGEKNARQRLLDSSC

CC(=O)N[C@H]1CCc2cn(nn2)CCCC[C@@H](C(=O)N[C@@H](C)C(=O)N[C@@H](Cc2ccccc2)C(=O)N[C@H](C(=O)N[C@@H](CC(=O)O)C(=O)N[C@@H](CO)C(=O)N[C@@H](Cc2ccc(O)cc2)C(N)=O)C(C)C)NC(=O)[C@H](CCC(N)=O)NC(=O)[C@H](CCCNC(=N)N)NC(=O)[C@H](Cc2c[nH]c3ccccc23)NC1=O (Ac-[Hpra]WRQ[Lys(N3)]AFVDSY-NH2; triazole 1-5)
helicity (circular dichroism): 26%

CC(=O)N[C@H]1CCCCn2cc(nn2)C[C@@H](C(=O)N[C@@H](C)C(=O)N[C@@H](Cc2ccccc2)C(=O)N[C@H](C(=O)N[C@@H](CC(=O)O)C(=O)N[C@@H](CO)C(=O)N[C@@H](Cc2ccc(O)cc2)C(N)=O)C(C)C)NC(=O)[C@H](CCC(N)=O)NC(=O)[C@H](CCCNC(=N)N)NC(=O)[C@H](Cc2c[nH]c3ccccc23)NC1=O (Ac-[Lys(N3)]WRQ[Pra]AFVDSY-NH2; triazole 1-5)
helicity (circular dichroism): 20%

CC(=O)N[C@H]1Cc2cn(nn2)CCC[C@@H](C(=O)N[C@@H](C)C(=O)N[C@@H](Cc2ccccc2)C(=O)N[C@H](C(=O)N[C@@H](CC(=O)O)C(=O)N[C@@H](CO)C(=O)N[C@@H](Cc2ccc(O)cc2)C(N)=O)C(C)C)NC(=O)[C@H](CCC(N)=O)NC(=O)[C@H](CCCNC(=N)N)NC(=O)[C@H](Cc2c[nH]c3ccccc23)NC1=O (Ac-[Pra]WRQ[Orn(N3)]AFVDSY-NH2; triazole 1-5)
helicity (circular dichroism): 14%

CCCN(CCC)S(=O)(=O)c1ccc(C(=O)O)cc1 [Pbn, probenecid, reference compound]
reduction of HOS-induced ATP release (Panx1 channels [1]; 2.5 mM, B16-BL6 cells, 30 min HOS): 61% | reduction of HOS-induced ATP release from EA.hy926 cells (Panx1 channels [2]; 2.5 mM): around 35% | inhibition of ATP release in H9c2 cells (H9c2 cells): No inhibition | inhibition of Yo-Pro-1 uptake (Panx1 channels [3]; 2.5 mM, 30 min): final lower level than the basal Tyrode conditions | cytotoxicity (extracellular LDH) (B16-BL6 cells): no cytotoxicity

CC(=O)N[C@@H](CO)C(=O)N[C@@H](Cc1c[nH]c2ccccc12)C(=O)N[C@@H](CCCNC(=N)N)C(=O)N[C@@H](CCC(N)=O)C(=O)N[C@@H](C)C(=O)N[C@H]1Cc2cn(nn2)CCCC[C@@H](C(=O)N[C@@H](Cc2ccc(O)cc2)C(N)=O)NC(=O)[C@H](CC(=O)O)NC(=O)[C@H](C(C)C)NC(=O)[C@H](Cc2ccccc2)NC1=O [SBL-PX1-42]
helicity (circular dichroism): 56% | fold longer half-life in human plasma compared to ^10Panx1 [4]: 30 fold | half-life t1/2 in human plasma ([4]; 37 °C): 1.102 ± 0.00867 h | thermal stability of α-helical profile (CD at varying temperatures) [5]: high thermal stability | inhibition at 100 µM (Panx1 channels [1]): 39% | inhibition at 100 µM (Panx1 channels [2]; [7]): 26% | decrease of HOS-induced Yo-Pro-1 uptake (Panx1 channels [3]): 26% | cytotoxicity (extracellular LDH) (B16-BL6 cells): no cytotoxicity

CC(=O)N[C@H]1Cc2cn(nn2)CCCC[C@@H](C(=O)N[C@@H](C)C(=O)N[C@@H](Cc2ccccc2)C(=O)N[C@H](C(=O)N[C@@H](CC(=O)O)C(=O)N[C@@H](CO)C(=O)N[C@@H](Cc2ccc(O)cc2)C(N)=O)C(C)C)NC(=O)[C@H](CCC(N)=O)NC(=O)[C@H](CCCNC(=N)N)NC(=O)[C@H](Cc2c[nH]c3ccccc23)NC1=O [SBL-PX1-44]
helicity (circular dichroism): 41% | fold longer half-life in human plasma compared to ^10Panx1 [4]: 30 fold | half-life t1/2 in human plasma ([4]; 37 °C): 1.04 ± 0.0418 h | inhibition at 100 µM (Panx1 channels [1]): 33% | inhibition at 100 µM (Panx1 channels [2]; [7]): 41% | decrease of HOS-induced Yo-Pro-1 uptake (Panx1 channels [3]): 27% | cytotoxicity (extracellular LDH) (B16-BL6 cells): no cytotoxicity

CC(C)[C@@H]1NC(=O)[C@H](Cc2ccccc2)NC(=O)[C@@H](NC(=O)[C@@H]2CCCCn3cc(nn3)C[C@H](NC(=O)CCCCCNC(=O)[C@@H](N)CCCCN)C(=O)N[C@@H](Cc3c[nH]c4ccccc34)C(=O)N[C@@H](CCCNC(=N)N)C(=O)N[C@@H](CCC(N)=O)C(=O)N2)Cc2cn(nn2)CCCC[C@@H](C(=O)N[C@@H](Cc2ccc(O)cc2)C(N)=O)NC(=O)[C@H](CC(=O)O)NC1=O [SBL-PX1-206] (H-K[Ahx][Pra]WRQ[Lys(N3)][Pra]FVD[Lys(N3)]Y-NH2; triazole 3-7, 8-12 (inferred))
helicity (circular dichroism): 44% | only identified metabolite (lysine of solubilizing tail cleaved) present in solution ([4]; after 24 h, human plasma, 37 °C): around 80% | reduction of HOS-induced ATP release from EA.hy926 cells (Panx1 channels [2]; 12.5 µM): about 25% | inhibition at 100 µM (Panx1 channels [2]; [7]): 15% | water solubility [6]: water-soluble

CC(C)[C@H](NC(=O)[C@H](Cc1ccccc1)NC(=O)[C@H](C)NC(=O)[C@H](C)NC(=O)[C@H](CCC(N)=O)NC(=O)[C@H](CCCNC(=N)N)NC(=O)[C@H](Cc1c[nH]c2ccccc12)NC(=O)CCCCCNC(=O)[C@@H](N)CCCCN)C(=O)N[C@@H](CC(=O)O)C(=O)N[C@@H](CO)C(=O)N[C@@H](Cc1ccc(O)cc1)C(=O)O [SBL-PX1-214] (H-K[Ahx]WRQAAFVDSY-OH)
inhibition at 100 µM (Panx1 channels [2]; EA.hy 926, 100 µM, 30 min HOS stimulation, read-out: % ATP release inhibition at 100µM (in EA.hy926 cells)): 30%

CC(C)[C@H](NC(=O)[C@H](Cc1ccccc1)NC(=O)[C@H](C)NC(=O)[C@H](C)NC(=O)[C@H](CCC(N)=O)NC(=O)[C@H](CCCNC(=N)N)NC(=O)[C@@H](N)Cc1c[nH]c2ccccc12)C(=O)N[C@@H](CC(=O)O)C(=O)N[C@@H](CO)C(=O)N[C@@H](Cc1ccc(O)cc1)C(=O)O [^10Panx1, WRQAAFVDSY] (H-WRQAAFVDSY-OH)
inhibition at 100 µM (Panx1 channels [1]): 19% | inhibition at 100 µM (Panx1 channels [2]; [7]): 24% | cytotoxicity (extracellular LDH) (B16-BL6 cells): no cytotoxicity

Ac-*WRQ*AFVDSY-NH2
cleaved bond (human plasma; up to 24 h): A-F, major; also recorded: D-S, major | not cleaved (human plasma; up to 24 h): amide bonds within the macrocycle remained intact for several hours

Ac-SWRQA*FVD*Y-NH2
cleaved bond (human plasma; up to 24 h): R-Q, major; also recorded: A-*, major

R-*WRQ**FVD*Y-NH2 (m = 1; n = 4; R = K-Ahx-)
cleaved bond (human plasma; up to 24 h): K-Ahx, major, 8 hours

WRQAAFVDSY
cleaved bond (human plasma; cited from earlier work): Trp74-Arg75; also recorded: Ala78-Phe79
